The target in the test is T1, tyrosinase.
T1 construct: gene PPO1; tyrosinase of unstated source and supplier
Nature of the test: L-tyrosine oxidation, absorbance at […] nm. Type of test: biochemical. The note with it: L-tyrosine substrate (0.1 mg/mL stock, 40 μL in 200 μL); PBS; 37 °C; 30 min.

The structures appear in SMILES notation.

Consider one compound from publication PMC10991105 (Bioresources and Bioprocessing, 2024).

On to `CCCCCCCCCCCC(=O)OC[C@H]1O[C@H](Oc2ccc(O)cc2)[C@H](O)[C@@H](O)[C@@H]1O` [6′-O-lauroylarbutin], for which the IC50 (usually the concentration at which inhibition is half-maximal) was 35 µM.
